# Measured values taken from EP0359821A1, “METHOD OF STERILIZING PLANT ANTHERS” (priority 1988, dated 1989).
# Read-outs that look alike come from different tables or passages of the source.
# Legend:
# [1] = test system: Winterweizens Sorte Mironovskaya 808; assay: Field trial of gametocidal activity (anther sterilisation), winter wheat; assay type: in vivo, Weizen; conditions: 2% aqueous emulsion, 20 kg/ha; for response vs control in vivo at 20000 g/ha: control = 100, read-out: Prozentsatz des Ansetzens bei freier Bestäubung
# [2] = test system: Sommerweizen Sorte Moskovskaya 35; assay: Field trial of gametocidal activity, spring wheat; assay type: in vivo, Weizen; conditions: 1% aqueous emulsion; for Anzahl von Körnern der Ähre bei freier Bestäubung / Anzahl von Körnern der Ähre im Isolator / percent sterility at 10000 g/ha / pest or weed control at 10000 g/ha: 10 kg/ha, V. period; for percent sterility at 10000 g/ha / pest or weed control at 10000 g/ha: read-out: Prozentsatz der Sterilität; for response vs control in vivo: control = 100, read-out: Prozentsatz des Ansetzens bei freier Bestäubung
# [3] = test system: Diploider Roggen Sorte Chulpan; assay: Field trial of gametocidal activity, diploid rye Chulpan; assay type: in vivo; conditions: single compounds, 1% aqueous emulsion, 10 kg/ha; for response vs control in vivo at 10000 g/ha: read-out: Prozentsatz des Ansetzens bei freier Bestäubung, Chulpan, control = 100; for pest or weed control at 10000 g/ha: read-out: Prozentsatz der Sterilität, Chulpan
# Description: (§1) Bei Weizen und Tritikale werden Einzelisolatoren verwendet.
# Pflanzen von diploidem Roggen Sorte Chulpan werden in der V. oder VI.
# Der Verbrauch an Sterilisationsmitteln beträgt 10 kg/ha.
# [4] = test system: Tetraploider Roggen Sorte Gibrid 67; assay: Field trial of gametocidal activity, tetraploid rye Gibrid 67; assay type: in vivo; conditions: 1% aqueous emulsion, 10 kg/ha; for Prozentsatz des Ansetzens bei freier Bestäubung: control = 100
# Description: as §1
# Pflanzen von tetraploidem Roggen Sorte Gibrid 67 werden in der V. oder VI.
# [5] = test system: Hirse Sorte Mironovskoe 94; assay: Field trial of gametocidal activity, millet Mironovskoe 94; assay type: in vivo; conditions: 1% aqueous emulsion, 10 kg/ha; for response vs control in vivo at 10000 g/ha: control = 100, read-out: Prozentsatz des Ansetzens bei freier Bestäubung
# [6] = in vivo; conditions: mouse, LD50, weisse Mäuse
# [7] = in vivo
# [8] = test system: Diploider Roggen Sorte Gibrid 1864/74; assay: Field trial of gametocidal activity, diploid rye Gibrid 1864/74; conditions: 1% aqueous emulsion, 10 kg/ha
# [9] = Toxicity in animal test (result in words)
# [10] = test system: Tetraploider Roggen Sorte Jubileinaya; assay: Field trial of gametocidal activity, tetraploid rye Jubileinaya; conditions: 1% aqueous emulsion, 10 kg/ha
# [11] = test system: weisse Mäuse
# [12] = test system: Hirse Sorte K-9693 Kormovoe 1; assay: Field trial of gametocidal activity, millet K-9693 Kormovoe 1; conditions: 1% aqueous emulsion, 10 kg/ha; for Anzahl von Körnern der Rispe bei freier Bestäubung / Anzahl von Körnern der Rispe im Isolator / Prozentsatz der Sterilität: V. or VI. period; for Prozentsatz des Ansetzens bei freier Bestäubung: control = 100
# [13] = test system: Sonnenblume Sorte Peredovik; assay: Field trial of pollen sterilisation, sunflower Peredovik; assay type: in vivo; conditions: 0,2% aqueous emulsion, 1,2 kg/ke (so in the source)
# Description: Pflanzen der Sonnenblume Sorte Peredovik werden in der V. oder VI.
# Der Verbrauch an Sterilisationsmittel beträgt 1,2 kg/ke.
# [14] = in vivo; conditions: rat
# [15] = test system: Sonnenblume Linie VK 119; assay: Field trial of pollen sterilisation, sunflower line VK 119; conditions: 0,2% aqueous emulsion, 1,2 kg/ha
# [16] = test system: Tetraploider Roggen Sorte Belta; assay: Field trial of gametocidal activity, tetraploid rye Belta; assay type: in vivo; conditions: 1% aqueous emulsion, 10 kg/ha
# [17] = test system: Diploider Roggen Sorte Gibrid 340/65; assay: Field trial of gametocidal activity, diploid rye Gibrid 340/65; conditions: Gibrid 340/65 (text: 312/65), 1% aqueous emulsion, 10 kg/ha
# [18] = V. or VI. period of organogenesis
# [19] = V. or VI. period, read-out: Prozentsatz der Sterilität
# [20] = Chulpan, V. or VI. period, listed as Beispiel 54
# [21] = V. or VI. period, listed as Beispiel 74
smiles,measurement,setting,value
"OCC(O)CSc1ccccc1F (centres unmarked) [Beispiel 7, 3-(2'-Fluorphenylthio)-propandiol-I,2]",Anzahl von Körnern der Ähre bei freier Bestäubung,[1]; [18],"36,7"
same,Anzahl von Körnern der Ähre im Isolator,[1]; [18],"0,0"
same,response vs control in vivo at 20000 g/ha,[1],90.6%
same,Anzahl von Körnern der Ähre bei freier Bestäubung,[2],"24,6"
same,Anzahl von Körnern der Ähre im Isolator,[2],"0,0"
same,percent sterility at 10000 g/ha,[2],100%
same,response vs control in vivo,[2],89.5%
same,Anzahl von Körnern der Ähre bei freier Bestäubung,"[3]; Chulpan, V. or VI. period","53,4"
same,Anzahl von Körnern der Ähre im Isolator,"[3]; Chulpan, V. or VI. period","0,6"
same,percent sterility at 10000 g/ha,"[3]; Chulpan, V. or VI. period, read-out: Prozentsatz der Sterilität",98.8%
same,response vs control in vivo at 10000 g/ha,[3],94.2%
same,Anzahl von Körnern der Ähre bei freier Bestäubung,[4]; V. or VI. period,"42,2"
same,Anzahl von Körnern der Ähre im Isolator,[4]; V. or VI. period,"0,0"
same,Prozentsatz des Ansetzens bei freier Bestäubung,[4],"94,4%"
same,Anzahl von Körnern der Rispe bei freier Bestäubung,[5]; V. or VI. period,"300,5"
same,Anzahl von Körnern der Rispe im Isolator,[5]; V. or VI. period,"0,0"
same,percent pollen sterility at 10000 g/ha,[5]; [19],100%
same,response vs control in vivo at 10000 g/ha,[5],79.2%
same,LD50,[6],400 mg/kg
"CCC(CO)(CO)CBr [I-Brom-2,2-di-methylol-butan]",Toxizität im Tierversuch,[7],praktisch nichttoxische
"O=C(O)c1ccc(O)cc1 [Beispiel 28, Monoäthanolaminat der p-Hydroxybenzoesäure]",Prozentsatz der Sterilität,[4]; V. or VI. period,"99,7%"
same,Prozentsatz des Ansetzens bei freier Bestäubung,[4],"93,4%"
same,LD50,[6],3200 mg/kg
same,Anzahl von Körnern der Ähre bei freier Bestäubung,[8]; V. period,"46,7"
same,Anzahl von Körnern der Ähre im Isolator,[8]; V. period,"1,8"
same,Prozentsatz der Sterilität,[8]; V. period,"95,6%"
same,Prozentsatz des Ansetzens bei freier Bestäubung,[8]; control = 100,"97,7%"
CCC(CO)(CO)CO [Trimethylolpropan],Toxizität im Tierversuch,[7],praktisch nichttoxische
"OCC(CO)(CO)CO [Beispiel 58, Pentaerythrit]",Toxizität im Tierversuch,[9],praktisch nichttoxische
same,Anzahl von Körnern der Ähre bei freier Bestäubung,[10]; V. or VI. period,"45,6"
same,Anzahl von Körnern der Ähre im Isolator,[10]; V. or VI. period,"0,4"
same,Prozentsatz des Ansetzens bei freier Bestäubung,[10]; control = 100,"94,4%"
OCC(O)CSc1ccc(F)cc1 (centres unmarked) [Beispiel I3],Anzahl von Körnern der Ähre bei freier Bestäubung,[1]; [18],"38,2"
same,Anzahl von Körnern der Ähre im Isolator,[1]; [18],"3,2"
same,response vs control in vivo at 20000 g/ha,[1],94.3%
same,Anzahl von Körnern der Ähre bei freier Bestäubung,[2],"26,4"
same,Anzahl von Körnern der Ähre im Isolator,[2],"2,0"
same,percent sterility at 10000 g/ha,[2],92.3%
same,response vs control in vivo,[2],96%
same,LD50,"[11]; mouse, in vivo",400 mg/kg Tiergewicht
same,LD50,[6],~400 mg/kg
same,Anzahl von Körnern der Rispe bei freier Bestäubung,[12],"128,7"
same,Anzahl von Körnern der Rispe im Isolator,[12],"0,0"
same,Prozentsatz der Sterilität,[12],100%
same,Prozentsatz des Ansetzens bei freier Bestäubung,[12],"87,7%"
OCC(CO)(CO)CBr [Brommethyl-tri(oxymethyl)-methan],Toxizität im Tierversuch,[9],praktisch nichttoxische
"CCCCOC(=S)S [Beispiel 44, Kaliumbutylxanthogenat]",Anzahl von Körnern der Ähre bei freier Bestäubung,"[3]; Chulpan, V. or VI. period","48,0"
same,Anzahl von Körnern der Ähre im Isolator,"[3]; Chulpan, V. or VI. period","2,6"
same,pest or weed control at 10000 g/ha,[3]; V. or VI. period,96.2%
same,response vs control in vivo at 10000 g/ha,[3],84.7%
same,Pollensterilität in %,[13],100%
same,Ansetzen von Achänen bei freier Bestäubung in %,[13]; V. or VI. period,"85,3%"
same,Ansetzen von Achänen im Isolator bei der Bestäubung mit dem Pollengemisch in %,[13]; V. or VI. period,"0,0%"
same,LD50,[14],760 mg/kg
same,Ansetzen von Achänen bei freier Bestäubung in %,[15],"81,5%"
same,Ansetzen von Achänen im Isolator bei der Bestäubung mit dem Pollengemisch in %,[15],"0,0%"
same,Pollensterilität in %,[15],100%
same,Anzahl von Körnern der Rispe bei freier Bestäubung,[12],"134,6"
same,Anzahl von Körnern der Rispe im Isolator,[12],"0,0"
same,Prozentsatz der Sterilität,[12],100%
same,Prozentsatz des Ansetzens bei freier Bestäubung,[12],"91,2%"
"O=C(O)c1ccccc1F [Beispiel 24, Diätha- nolaminat der o-Fluorbenzoesäure]",Anzahl von Körnern der Ähre bei freier Bestäubung,[2],"27,1"
same,Anzahl von Körnern der Ähre im Isolator,[2],"2,2"
same,pest or weed control at 10000 g/ha,[2],91.9%
same,response vs control in vivo,[2],98.5%
same,Anzahl von Körnern der Ähre bei freier Bestäubung,[3]; [20],"54,0"
same,Anzahl von Körnern der Ähre im Isolator,[3]; [20],"0,0"
same,pest or weed control at 10000 g/ha,[3]; V. or VI. period,100%
same,response vs control in vivo at 10000 g/ha,[3],95.2%
same,Anzahl von Körnern der Ähre bei freier Bestäubung,[16]; [21],"43,8"
same,Anzahl von Körnern der Ähre im Isolator,[16]; [21],"0,9"
same,pest or weed control at 10000 g/ha,[16]; [19],97.8%
same,response vs control in vivo at 10000 g/ha,"[16]; control = 100, read-out: Prozentsatz des Ansetzens bei freier Bestäubung",98.9%
same,Anzahl von Körnern der Rispe bei freier Bestäubung,[5]; V. or VI. period,"348,6"
same,Anzahl von Körnern der Rispe im Isolator,[5]; V. or VI. period,"0,0"
same,pest or weed control at 10000 g/ha,[5]; [19],100%
same,response vs control in vivo at 10000 g/ha,[5],91.2%
same,LD50,"[11]; weisse Mäuse, listed as Diäthanolaminsalz der o-Fluarbenzoesäure",500 mg/kg Tiergewicht
"CC(C)OC(=S)S [Beispiel 5, Kaliumisopropylxanthogenat]",Anzahl von Körnern der Ähre bei freier Bestäubung,[1]; [18],"35,2"
same,Anzahl von Körnern der Ähre im Isolator,[1]; [18],"2,3"
same,pest or weed control at 20000 g/ha,"[1]; V. or VI. period of organogenesis, read-out: Prozentsatz der Sterilität",93.7%
same,response vs control in vivo at 20000 g/ha,[1],86.2%
same,Anzahl von Körnern der Ähre bei freier Bestäubung,[2],"24,9"
same,Anzahl von Körnern der Ähre im Isolator,[2],"2,3"
same,pest or weed control at 10000 g/ha,[2],91.5%
same,response vs control in vivo,[2],90.5%
same,Anzahl von Körnern der Ähre bei freier Bestäubung,"[3]; Chulpan, V. or VI. period","51,8"
same,Anzahl von Körnern der Ähre im Isolator,"[3]; Chulpan, V. or VI. period","0,3"
same,pest or weed control at 10000 g/ha,[3]; V. or VI. period,99.4%
same,response vs control in vivo at 10000 g/ha,[3],91.4%
same,Anzahl von Körnern der Rispe bei freier Bestäubung,[5]; V. or VI. period,"288,6"
same,Anzahl von Körnern der Rispe im Isolator,[5]; V. or VI. period,"0,0"
same,pest or weed control at 10000 g/ha,[5]; [19],100%
same,response vs control in vivo at 10000 g/ha,[5],76%
same,Pollensterilität in %,[13],100%
same,Ansetzen von Achänen im Isolator bei der Bestäubung mit dem Pollengemisch in %,[13]; V. or VI. period,"0,0%"
same,LD50,[14],760 mg/kg
same,Ansetzen von Achänen bei freier Bestäubung in %,[15],"85,3%"
same,Ansetzen von Achänen im Isolator bei der Bestäubung mit dem Pollengemisch in %,[15],"0,0%"
same,Pollensterilität in %,[15],100%
same,Anzahl von Körnern der Ähre bei freier Bestäubung,[17]; V. and VI. periods,"44,8"
same,Anzahl von Körnern der Ähre im Isolator,[17]; V. and VI. periods,"0,0"
same,Prozentsatz der Sterilität,[17]; V. and VI. periods,100%
same,Prozentsatz des Ansetzens bei freier Bestäubung,[17]; control = 100,"83,5%"
